Experimental data as given in patent publication US20130065958A1, “METHODS FOR DISINFECTING OR STERILIZING ARTICLES” (priority 2011, published 2013).
“And” between values parts separate entries of the source, which are not always exact repeats. Identical values can stand only once. Like-named read-outs stand apart in the source and are kept apart here.

System: Bacillus atrophaeus ATCC 9372 spores
Conditions: 3 drops, overnight (15 hours) at 35 C
Procedure: Before sealing, the inside surface of the bottle cap (liner removed) or its foam liner had been inoculated with a 10 μL droplet of Bacillus atrophaeus ATCC 9372 spores dried down onto the cap or liner surface. Bacillus atrophaeus ATCC 9372 spores are known to be of relatively high resistance to peroxide disinfection and are a recommended (for example, the U.S. Pharmacopeia) resistant organism for disinfection studies using chemicals (such as peroxide or ethylene oxide) or dry heat.

SMILES: OO [3% hydrogen peroxide, hydrogen peroxide]
- CFU Recovered (inoculated on cap): 425000 CFU and 475000 CFU
- Log Reduction (inoculated on cap): 1.2 and 1.1
- CFU Recovered (inoculated on liner): 830000 CFU
- Log Reduction (inoculated on liner): 0.4
